Data as given in patent publication US20150283120A1, “ANTIBIOTIC METHODS AND COMPOSITIONS FOR BACTERIA INFECTIONS” (THE UNIVERSITY OF CHICAGO, priority 2012, published 2015).
Entries after “also recorded” stand apart in the source; their conditions may differ. Structures can show the parent of a compound that is named as a salt. Where two headings read alike, the source gives them in different places.

Tests used:
diverse MRSA strains = experiment: MIC of oxacillin with a single concentration of compound in multiple MRSA strains; type: cell-based, Staphylococcus aureus; conditions: for MIC 80 of Ox in presence of compound: panel of 11 MRSA isolates, clom 3.8 μM, gos 15 μM, pyr 0.5 μM; for MIC50 of oxacillin in the presence of compound / MIC80 of oxacillin in the presence of compound / fold decrease in the oxacillin MIC50: panel of strains; for fold decrease in the oxacillin MIC50: with compound against oxacillin alone
Experimental: Testing potentiation of oxacillin by compounds in multiple MRSA strains: In order to be considered a synergistic agent in therapy of MRSA infection, it must be effective as a potentiator in diverse MRSA strains. To determine whether the oxacillin potentiators were effective against MRSA strains besides USA300, a single effective concentration of three compounds that were not known as antibiotics—gossypol, pyrvinium and clomiphene—were tested against multiple MRSA genetic backgrounds. Each compound was tested at a single optimal concentration, determined in the checkerboard assays, in combination with various concentrations of oxacillin. The strains included in this panel were from diverse genetic backgrounds as determined by multilocus sequence type (MLST) and contained a variety of SCCmec types. […] The MIC80 was […] for clomiphene, gossypol, and pyrvinium, respectively.

MRSA strain 8004-01 = experiment: Checkerboard oxacillin + compound, strain 8004-01; design: MIC OX / MIC OX (+) / MIC cmpd alone: unit not given beside the values; conditions: strain 8004-1 (ST239); for MIC cmpd +: compound in combination with oxacillin; for FICi: oxacillin + compound; for MIC OX (+): oxacillin in combination with compound
VRS1 = experiment: microbe, parasite or virus in culture; type: cell-based, Staphylococcus aureus; conditions: for MIC: Staphylococcus aureus, read-out: MIC compound; for Synergy category: with vancomycin
Source text: (§1) As shown in the analysis of the checkerboard assays (Table 6), gossypol fully potentiated vancomycin (FIC i<0.5) in hVISA, VISA, VRS2 and VRS1. […] Clomiphene partially potentiated vancomycin in hVISA, VISA, and VRS1 and it fully potentiated in strain VRS2.

hVISA 2275 = experiment: microbe, parasite or virus in culture; type: cell-based, Staphylococcus aureus; conditions: for MIC: Staphylococcus aureus, read-out: MIC compound; for Synergy category: with vancomycin
Source text: as §1

VRS2 = experiment: microbe, parasite or virus in culture; type: cell-based, Staphylococcus aureus; conditions: for MIC: Staphylococcus aureus, read-out: MIC compound
Source text: as §1

vraR transcription = experiment: Tertiary screen: qRT-PCR of vraR in strain 923; type: cell-based, Staphylococcus aureus; conditions: for classification of lux screen result against qRT-PCR (true/false repressor or stimulator): in the presence of oxacillin; for Effect on vraSR Transcription: With oxacillin: qRT-PCR of vraR, compound 10 μM + oxacillin 2 μg/mL
[1] = tested on: MRSA strain USA300-isolate 923; experiment: Checkerboard MIC testing of compounds with oxacillin; type: cell-based, Staphylococcus aureus; conditions: for oxacillin MIC: strain 923, 24 h; for change of the MIC of oxacillin with compound concentration: strain 923, checkerboard; for bactericidal effect of oxacillin (MBC, >99.9% killing): strain 923, wells with FICi≦0.5 spotted on TSA
VISA 2283 = experiment: microbe, parasite or virus in culture; type: cell-based, Staphylococcus aureus; design: MIC (in combination) Van+: unit not given beside the values; conditions: for MIC: Staphylococcus aureus, read-out: MIC compound; for Synergy category: with vancomycin
Source text: as §1

[2] = tested on: MRSA strain USA300 Pvra-lux; type: cell-based, Staphylococcus aureus; conditions: compound 10 μM + oxacillin 2 μg/mL
In short: (§2)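 Secondary screen: compound at 10 μM plus oxacillin 2 μg/mL, four biological replicates, luminescence read every 15 minutes. RG and RL are OD600 or max LU with compound plus oxacillin over pooled same-plate oxacillin controls; RL <0.8 repressor, >1.2 stimulator, 0.80-1.2 neutral.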

[3] = tested on: vraSR transcription (Pvra::lux); type: cell-based, Staphylococcus aureus; conditions: compound 10 μM + oxacillin 2 μg/mL
In short: as §2

[4] = tested on: test strain (923 pPvra-lux); experiment: Primary screen: growth (OD) of test strain with compound, with and without oxacillin; type: cell-based, Staphylococcus aureus; conditions: compound 10 μM, with and without oxacillin 2 μg/mL; OD at 24 h; library screened twice
[5] = tested on: vraSR operon (vra promoter, Pvra::lux); experiment: Primary screen: Pvra-lux luminescence (vraSR induction); type: cell-based, Staphylococcus aureus; conditions: compound 10 μM, oxacillin 2 μg/mL; luminescence at 2 hours; library screened twice

SMILES: CCN(CC)CCOc1ccc(/C(=C(/Cl)c2ccccc2)c2ccccc2)cc1 [Clomiphene citrate (Z,E), 2-(4-(2-chloro-1,2-diphenylethenyl)phenoxy)-N,N-diethyl-ethanamine]
- MIC 80 of Ox in presence of compound (diverse MRSA strains): 2 µg/mL
- MIC50 of oxacillin in the presence of compound (diverse MRSA strains): 0.5 µg/mL
- MIC80 of oxacillin in the presence of compound (diverse MRSA strains): 0.002 µg/mL
- fold decrease in the oxacillin MIC50 (diverse MRSA strains): 32 fold
- FIC Compound (MRSA strain 8004-01): 0.5
- FIC Ox (MRSA strain 8004-01): .03
- MIC cmpd alone (MRSA strain 8004-01): 10.4
- MIC cmpd + (MRSA strain 8004-01): 5.2 µg/mL
- FICi (MRSA strain 8004-01): 0.53
- MIC OX (+) (MRSA strain 8004-01): 16
- MIC (VRS1; VRS1, compound alone): 12 µg/mL
- FICi V + compound (VRS1; VRS1): 0.75
- Synergy category (VRS1; VRS1): partially potentiated (partially potentiated vancomycin (FIC i>0.5 and <1.0))
- Synergy category (VRS1; VRS1, listed as Clo): partial (partially potentiated vancomycin (FIC i>0.5 and <1.0))
- MIC (hVISA 2275; hVISA 2275, compound alone): 12 µg/mL
- Synergy category (hVISA 2275; hVISA 2275, listed as Clo): partial (partially potentiated vancomycin (FIC i>0.5 and <1.0))
- MIC (VRS2; VRS2, compound alone): 12 µg/mL
- classification of lux screen result against qRT-PCR (true/false repressor or stimulator) (vraR transcription): true vraSR expression repressors
- Effect on vraSR Transcription: With oxacillin (vraR transcription; listed as clomifene): vraR inhibitors; also recorded: repress
- oxacillin MIC ([1]; compound 0.25 μM): 32 µg/mL
- oxacillin MIC ([1]; compound 0.5 μM): 16 µg/mL
- oxacillin MIC ([1]; compound 1 μM): 32 µg/mL
- oxacillin MIC ([1]; compound 2 μM): 32 µg/mL
- oxacillin MIC ([1]; compound 4 μM): 8 µg/mL
- oxacillin MIC ([1]; compound 8 μM): 8 µg/mL
- oxacillin MIC ([1]; compound 16 μM): 2 µg/mL
- change of the MIC of oxacillin with compound concentration [1]: dose dependent decrease
- bactericidal effect of oxacillin (MBC, >99.9% killing) [1]: increased the bactericidal effect of oxacillin
- MIC (VISA 2283; VISA 2283, compound alone): 12 µg/mL
- FICi V + compound (VISA 2283; VISA 2283): 0.75
- Van FIC (VISA 2283; VISA 2283): 0.5
- compound FIC (VISA 2283; VISA 2283): 0.25
- fold decrease Van MIC (VISA 2283; VISA 2283): 2 fold
- MIC (in combination) compound+ (VISA 2283; VISA 2283, compound MIC with the indicated Van concentration): 3
- MIC (in combination) Van+ (VISA 2283; VISA 2283, vancomycin MIC in combination with compound): 4
- Synergy category (VISA 2283; VISA 2283): partially potentiated (partially potentiated vancomycin (FIC i>0.5 and <1.0))
- Synergy category (VISA 2283; VISA 2283, listed as Clo): partial (partially potentiated vancomycin (FIC i>0.5 and <1.0))

SMILES: Cc1cc2c(C(C)C)c(O)c(O)c(C=O)c2c(O)c1-c1c(C)cc2c(C(C)C)c(O)c(O)c(C=O)c2c1O [Gossypol, 2,2′-bis-(Formyl-1,6,7-trihydroxy-5-isopropyl-3-methylnaphthalene)]
- MIC 80 of Ox in presence of compound (diverse MRSA strains): 8 µg/mL
- MIC50 of oxacillin in the presence of compound (diverse MRSA strains): 0.5 µg/mL
- MIC80 of oxacillin in the presence of compound (diverse MRSA strains): 0.008 µg/mL
- fold decrease in the oxacillin MIC50 (diverse MRSA strains): 32 fold
- FIC Compound (MRSA strain 8004-01): .5
- FIC Ox (MRSA strain 8004-01): .06
- MIC cmpd alone (MRSA strain 8004-01): 40
- MIC cmpd + (MRSA strain 8004-01): 20 µg/mL
- FICi (MRSA strain 8004-01): 0.56
- FICi (MRSA strain 8004-01; listed as Gos): .56
- MIC OX (+) (MRSA strain 8004-01): 32
- OD600 category [2]: inhibited (of <0.8 were classified as oxacillin synergists or potentiators)
- RG avg (relative growth) ([2]; ratio of OD600 to oxacillin alone, four runs): 0.16
- Effect on vraSR transcription [3]: repress (“vraSR repressors” (mean RL of <0.8))
- RL avg (relative luminescence) ([3]; ratio of LU to oxacillin alone, four runs): 0.11
- MIC (VRS1): 20.8 µg/mL
- Synergy category (VRS1; VRS1, listed as Gos): synergistic (fully potentiated vancomycin (FIC i<0.5))
- MIC (hVISA 2275): 10.4 µg/mL
- FICi V + compound (hVISA 2275; hVISA 2275): 0.38
- Van FIC (hVISA 2275; hVISA 2275): 0.25
- compound FIC (hVISA 2275; hVISA 2275): 0.125
- fold decrease Van MIC (hVISA 2275; hVISA 2275): 4 fold
- MIC (in combination) compound+ (hVISA 2275; hVISA 2275, compound MIC with the indicated Van concentration): 1.3
- Synergy category (hVISA 2275; hVISA 2275): fully potentiated (fully potentiated vancomycin (FIC i<0.5))
- Synergy category (hVISA 2275; hVISA 2275, listed as Gos): synergistic (fully potentiated vancomycin (FIC i<0.5))
- MIC (VRS2): 5.2 µg/mL
- FICi V + compound (VRS2; VRS2): 0.31
- Van FIC (VRS2; VRS2): 0.06
- compound FIC (VRS2; VRS2): 0.25
- fold decrease Van MIC (VRS2; VRS2): 16 fold
- MIC (in combination) compound+ (VRS2; VRS2, compound MIC with the indicated Van concentration): 1.3
- Synergy category (VRS2; VRS2, with vancomycin, listed as Gos): synergistic (fully potentiated vancomycin (FIC i<0.5))
- classification of lux screen result against qRT-PCR (true/false repressor or stimulator) (vraR transcription): true vraSR expression repressors
- Effect on vraSR Transcription: With oxacillin (vraR transcription): vraR inhibitors; also recorded: repress
- oxacillin MIC ([1]; compound 0.25 μM): 32 µg/mL
- oxacillin MIC ([1]; compound 0.5 μM): 32 µg/mL
- oxacillin MIC ([1]; compound 1 μM): 16 µg/mL
- oxacillin MIC ([1]; compound 2 μM): 4 µg/mL
- oxacillin MIC ([1]; compound 4 μM): 2 µg/mL
- oxacillin MIC ([1]; compound 8 μM): 2 µg/mL
- oxacillin MIC ([1]; compound 16 μM): 2 µg/mL
- change of the MIC of oxacillin with compound concentration [1]: dose dependent decrease
- bactericidal effect of oxacillin (MBC, >99.9% killing) [1]: increased the bactericidal effect of oxacillin
- primary screen category by effect on growth of MRSA strain 923 [4]: strong growth inhibitors on their own
- MIC (VISA 2283; VISA): 10.4 µg/mL
- Synergy category (VISA 2283; VISA 2283): fully potentiated (fully potentiated vancomycin (FIC i<0.5))
- Synergy category (VISA 2283; VISA 2283, listed as Gos): partial (partially potentiated vancomycin (FIC i>0.5 and <1.0))
- primary screen category by effect on vraSR (Pvra-lux luminescence) [5]: repressed Pvra::lux in both primary screens
